Laboratory results as given in PubChem BioAssay AID1259407 (Chemical Carcinogenesis Research Information System (CCRIS), 2018).
Active and inactive are the calls of the source. How the calls were made is not given here.

Test system: CCRIS mutagenicity, Ames/micronucleus/aberration tests
Test: CCRIS mutagenicity studies

Measured: mutagenic call

C=CC#N
active: End Point: IN VITRO CHROMOSOMAL ABERRATIONS, Test System: CHL CELLS, Metabolic Activation: RAT, LIVER, S-9, SODIUM PHENOBARBITAL AND 5,6-BENZOFLAVONE active; positive (structural changes) | Test System: AMES SALMONELLA TYPHIMURIUM, Strain/Indicator: TA100, Metabolic Activation: HAMSTER LIVER S-9, AROCLOR 1254 (10% OR 30%), Method: PREINCUBATION active; positive | Test System: AMES SALMONELLA TYPHIMURIUM, Strain/Indicator: TA100, Metabolic Activation: HAMSTER LIVER S-9, AROCLOR 1254 (10%), Method: PREINCUBATION active; positive | Test System: AMES SALMONELLA TYPHIMURIUM, Strain/Indicator: TA100, Metabolic Activation: HAMSTER LIVER S-9, AROCLOR 1254 (30%), Method: PREINCUBATION active; positive | Test System: AMES SALMONELLA TYPHIMURIUM, Strain/Indicator: TA100, Metabolic Activation: HAMSTER, LIVER, S-9, AROCLOR 1254 (5, 10, 20%), Method: PREINCUBATION active; positive | Test System: AMES SALMONELLA TYPHIMURIUM, Strain/Indicator: TA100, Metabolic Activation: HAMSTER, LIVER, S-9, AROCLOR 1254 (20%), Method: PREINCUBATION active; positive | Test System: AMES SALMONELLA TYPHIMURIUM, Strain/Indicator: TA100, Metabolic Activation: RAT, LIVER, S-9, AROCLOR 1254, Method: FLUCTUATION active; positive | Test System: AMES SALMONELLA TYPHIMURIUM, Strain/Indicator: TA1530, Metabolic Activation: RAT, LIVER, S-9, 3-METHYLCHOLANTHRENE OR PCB OR PHENOBARBITAL, Method: FLUCTUATION active; positive | Test System: AMES SALMONELLA TYPHIMURIUM, Strain/Indicator: TA1530, Metabolic Activation: RAT, LIVER, S-9, PCB OR PHENOBARBITAL, Method: DESICCATOR active; positive
inactive: End Point: IN VIVO CHROMOSOMAL ABERRATIONS, Test System: BONE MARROW CELLS, Species: MOUSE, Strain/Sex: C57B1/6/MALE, Route: IP INJECTION (ONCE) inactive; negative | Test System: AMES SALMONELLA TYPHIMURIUM, Strain/Indicator: TA97, Metabolic Activation: HAMSTER LIVER S-9, AROCLOR 1254 (10%), Method: PREINCUBATION inactive; negative | Test System: AMES SALMONELLA TYPHIMURIUM, Strain/Indicator: TA97, Metabolic Activation: NONE, Method: PREINCUBATION inactive; negative | Test System: AMES SALMONELLA TYPHIMURIUM, Strain/Indicator: TA97, Metabolic Activation: NONE, Method: STANDARD PLATE inactive; negative | Test System: AMES SALMONELLA TYPHIMURIUM, Strain/Indicator: TA97, Metabolic Activation: RAT LIVER S-9, AROCLOR 1254 (10%), Method: PREINCUBATION inactive; negative | Test System: AMES SALMONELLA TYPHIMURIUM, Strain/Indicator: TA97, Metabolic Activation: RAT, LIVER, S-9, AROCLOR 1254, Method: STANDARD PLATE inactive; negative | Test System: AMES SALMONELLA TYPHIMURIUM, Strain/Indicator: TA97, Metabolic Activation: S-9, Method: STANDARD PLATE inactive; negative | Test System: AMES SALMONELLA TYPHIMURIUM, Strain/Indicator: TA98, Metabolic Activation: HAMSTER LIVER S-9, AROCLOR 1254 (10%), Method: PREINCUBATION inactive; negative | Test System: AMES SALMONELLA TYPHIMURIUM, Strain/Indicator: TA98, Metabolic Activation: NONE, Method: PREINCUBATION inactive; negative | Test System: AMES SALMONELLA TYPHIMURIUM, Strain/Indicator: TA98, Metabolic Activation: NONE, Method: STANDARD PLATE inactive; negative | Test System: AMES SALMONELLA TYPHIMURIUM; Strain/Indicator: TA98; Metabolic Activation: RAT LIVER S-9, AROCLOR 1254 910%), Method: PREINCUBATION inactive; negative | Test System: AMES SALMONELLA TYPHIMURIUM, Strain/Indicator: TA98, Metabolic Activation: RAT, LIVER, S-9, AROCLOR 1254, Method: STANDARD PLATE inactive; negative | Test System: AMES SALMONELLA TYPHIMURIUM, Strain/Indicator: TA98, Metabolic Activation: S-9, Method: STANDARD PLATE inactive; negative | Test System: AMES SALMONELLA TYPHIMURIUM, Strain/Indicator: TA100, Metabolic Activation: HAMSTER LIVER S-9, AROCLOR 1254 (5%), Method: PREINCUBATION inactive; negative | Test System: AMES SALMONELLA TYPHIMURIUM, Strain/Indicator: TA100, Metabolic Activation: HAMSTER LIVER S-9, AROCLOR 1254 (5 OR 10%), Method: PREINCUBATION inactive; negative | Test System: AMES SALMONELLA TYPHIMURIUM, Strain/Indicator: TA100, Metabolic Activation: NONE, Method: PREINCUBATION inactive; negative | Test System: AMES SALMONELLA TYPHIMURIUM, Strain/Indicator: TA100, Metabolic Activation: NONE, Method: STANDARD PLATE inactive; negative | Test System: AMES SALMONELLA TYPHIMURIUM, Strain/Indicator: TA100, Metabolic Activation: RAT LIVER S-9, AROCLOR 1254 (5, 10, OR 30%), Method: PREINCUBATION inactive; negative | Test System: AMES SALMONELLA TYPHIMURIUM, Strain/Indicator: TA100, Metabolic Activation: RAT LIVER S-9, AROCLOR 1254 (5/%, 10% OR 30%), Method: PREINCUBATION inactive; negative | Test System: AMES SALMONELLA TYPHIMURIUM, Strain/Indicator: TA100, Metabolic Activation: RAT LIVER S-9, AROCLOR 1254 (10%), Method: PREINCUBATION inactive; negative | Test System: AMES SALMONELLA TYPHIMURIUM, Strain/Indicator: TA100, Metabolic Activation: RAT, LIVER, S-9, AROCLOR 1254, Method: STANDARD PLATE inactive; negative | Test System: AMES SALMONELLA TYPHIMURIUM, Strain/Indicator: TA100, Metabolic Activation: S-9, Method: STANDARD PLATE inactive; negative | Test System: AMES SALMONELLA TYPHIMURIUM, Strain/Indicator: TA102, Metabolic Activation: NONE, Method: STANDARD PLATE inactive; negative | Test System: AMES SALMONELLA TYPHIMURIUM, Strain/Indicator: TA102, Metabolic Activation: S-9, Method: STANDARD PLATE inactive; negative
